Source: US11510896B2, “Antiviral compositions for the treatment of infections linked to coronaviruses” (priority 2016, dated 2022)

Columns and labels:
[1] = system: MERS-CoV strain France-UAE/1612/2013; test: microbe, parasite or virus in culture; assay type: cell-based, MERS-CoV coronavirus; settings: for IC50: Middle East respiratory syndrome-related coronavirus, Vero C1008, 24 h, read-out: IC50 (dose necessary to obtain a 50% viral production inhibition)
[2] = system: horses; settings: horses versus ruminants; cited from earlier work

Row | Compound | reduction of the infectious titres with respect to the control ([1]; 12.5 μM) [%] | IC50 [1] [nM] | reduction of the infectious titres with respect to the control ([1]; 6 μM) [%] | LD50 in horses, times less than in ruminants [2] [times]
1 | COc1ccc2cc3[n+](cc2c1OC)CCc1cc2c(cc1-3)OCO2 [berberine, Berberine] | 78.4 | 3800 |  | 
2 | CC[C@@]1([C@@H]2O[C@@H]([C@H]3O[C@@](O)(CO)[C@H](C)C[C@@H]3C)C[C@@H]2C)CC[C@H]([C@]2(C)CC[C@]3(C[C@H](O)[C@@H](C)[C@@H]([C@@H](C)[C@@H](OC)[C@H](C)C(=O)O)O3)O2)O1 [monensin, Monensin] |  | 1250 | 97.8 | 100
